Laboratory results from ChEMBL document CHEMBL1132608, “Structure-activity relationship of diaryl phosphonate esters as potent irreversible dipeptidyl peptidase IV inhibitors” (J Med Chem, 1999).

Key:
[1] = molecular target: Dipeptidyl peptidase 4 (Homo sapiens, UniProt P27487)
Description: In vitro inhibition of human Dipeptidylpeptidase IV.

[2] = molecular target: T1, Prolyl endopeptidase (Homo sapiens) (UniProt P48147); experiment: Effect on the activity of prolyl endopeptidase (PEP) is evaluated at the IC50 concentration for DPPIV.
T1 sequence (whole entry): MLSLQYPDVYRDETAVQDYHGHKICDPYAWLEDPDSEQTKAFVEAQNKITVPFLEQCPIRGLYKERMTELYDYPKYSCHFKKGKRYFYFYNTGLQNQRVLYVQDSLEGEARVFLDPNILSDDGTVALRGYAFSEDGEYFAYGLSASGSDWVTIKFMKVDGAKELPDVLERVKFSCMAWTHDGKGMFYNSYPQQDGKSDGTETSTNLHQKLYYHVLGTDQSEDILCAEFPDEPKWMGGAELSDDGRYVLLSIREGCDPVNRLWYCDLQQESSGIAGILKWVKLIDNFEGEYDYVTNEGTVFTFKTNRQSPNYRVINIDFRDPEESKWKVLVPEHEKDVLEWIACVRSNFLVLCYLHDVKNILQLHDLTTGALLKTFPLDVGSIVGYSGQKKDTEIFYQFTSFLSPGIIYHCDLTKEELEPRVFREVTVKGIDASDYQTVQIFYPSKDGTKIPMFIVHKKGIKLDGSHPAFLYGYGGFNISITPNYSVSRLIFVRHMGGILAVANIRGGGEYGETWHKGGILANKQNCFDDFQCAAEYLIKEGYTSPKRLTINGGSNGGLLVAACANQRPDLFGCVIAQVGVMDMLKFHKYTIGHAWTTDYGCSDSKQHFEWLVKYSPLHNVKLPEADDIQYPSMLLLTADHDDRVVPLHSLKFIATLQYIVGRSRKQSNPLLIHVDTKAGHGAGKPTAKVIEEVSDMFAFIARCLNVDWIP

[3] = molecular target: Dipeptidyl peptidase 4 (Mus musculus) (UniProt P28843)
Description: Effect on the activity of Dipeptidylpeptidase II (DPP II) is evaluated at a concentration of 1 mM.

[4] = species on record: Homo sapiens; experiment: Effect on the activity of elastase is evaluated at a concentration of 1 mM.; format: functional
[5] = Effect on the activity of membrane alanyl aminopeptidase (MAAP) is evaluated at the IC50 concentration for DPPIV.
[6] = species on record: Homo sapiens; experiment: cells
[7] = molecular target: Dipeptidyl peptidase 4 (Mus musculus) (UniProt P28843); remark: listed apart in the source
Description: Effect on the activity of Dipeptidylpeptidase II (DPP II) is evaluated at the IC50 concentration for DPPIV.

[8] = Functional stability in plasma was estimated by fitting the inverse of apparent IC50 values verses time with a single-exponential decay; format: ADME, cell-free
[9] = molecular target: T1, Prolyl endopeptidase (Homo sapiens); experiment: Effect on the activity of prolyl endopeptidase (PEP) is evaluated at 1 mM.
[10] = molecular target: Aminopeptidase N (Homo sapiens) (UniProt P15144); experiment: Effect on the activity of membrane alanyl aminopeptidase (MAAP) is evaluated at a concentration of 1 mM.
[11] = species on record: Homo sapiens; experiment: Effect on the activity of elastase was determined as IC50; format: functional

Dipeptidyl peptidase 4 (Mus musculus), sequence (P28843 whole entry, looked up): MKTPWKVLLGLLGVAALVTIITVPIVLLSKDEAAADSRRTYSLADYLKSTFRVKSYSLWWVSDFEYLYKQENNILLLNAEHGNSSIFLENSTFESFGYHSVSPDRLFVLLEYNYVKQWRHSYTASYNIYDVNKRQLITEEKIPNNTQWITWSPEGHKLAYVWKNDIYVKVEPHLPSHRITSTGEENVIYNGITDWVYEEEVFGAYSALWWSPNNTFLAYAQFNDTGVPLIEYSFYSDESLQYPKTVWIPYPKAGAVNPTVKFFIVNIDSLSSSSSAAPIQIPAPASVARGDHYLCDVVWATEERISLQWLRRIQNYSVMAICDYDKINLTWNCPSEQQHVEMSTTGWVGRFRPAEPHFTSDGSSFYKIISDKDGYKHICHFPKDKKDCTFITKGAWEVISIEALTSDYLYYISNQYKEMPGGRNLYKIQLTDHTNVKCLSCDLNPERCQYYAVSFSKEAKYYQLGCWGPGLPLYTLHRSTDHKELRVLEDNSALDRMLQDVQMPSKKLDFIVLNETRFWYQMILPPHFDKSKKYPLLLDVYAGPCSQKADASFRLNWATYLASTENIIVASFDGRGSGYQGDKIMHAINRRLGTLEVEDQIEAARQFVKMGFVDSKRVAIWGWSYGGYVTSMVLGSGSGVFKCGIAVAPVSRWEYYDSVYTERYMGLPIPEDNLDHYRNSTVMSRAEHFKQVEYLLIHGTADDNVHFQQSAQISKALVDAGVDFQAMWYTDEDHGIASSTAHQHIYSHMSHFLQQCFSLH
Dipeptidyl peptidase 4, sequence (P27487 whole entry): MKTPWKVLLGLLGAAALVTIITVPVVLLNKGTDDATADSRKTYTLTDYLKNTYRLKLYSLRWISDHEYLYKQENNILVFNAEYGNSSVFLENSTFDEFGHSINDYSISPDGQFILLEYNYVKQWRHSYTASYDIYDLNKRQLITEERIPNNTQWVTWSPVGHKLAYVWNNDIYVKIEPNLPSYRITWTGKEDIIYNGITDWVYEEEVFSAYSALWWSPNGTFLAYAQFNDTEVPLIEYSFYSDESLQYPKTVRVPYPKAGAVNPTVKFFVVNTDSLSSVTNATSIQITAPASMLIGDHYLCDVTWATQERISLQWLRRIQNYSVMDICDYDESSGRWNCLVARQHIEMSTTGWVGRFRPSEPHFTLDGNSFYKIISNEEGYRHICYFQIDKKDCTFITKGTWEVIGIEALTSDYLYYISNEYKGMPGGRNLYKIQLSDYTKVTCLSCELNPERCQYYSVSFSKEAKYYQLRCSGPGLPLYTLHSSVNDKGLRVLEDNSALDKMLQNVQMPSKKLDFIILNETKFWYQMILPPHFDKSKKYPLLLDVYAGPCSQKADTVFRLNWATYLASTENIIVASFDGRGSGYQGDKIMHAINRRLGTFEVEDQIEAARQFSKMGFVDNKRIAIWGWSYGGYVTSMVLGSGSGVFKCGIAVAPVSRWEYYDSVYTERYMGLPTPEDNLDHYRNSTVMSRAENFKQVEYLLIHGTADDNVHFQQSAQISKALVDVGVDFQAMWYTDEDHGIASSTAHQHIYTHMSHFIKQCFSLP
Aminopeptidase N (Homo sapiens), sequence (P15144 whole entry): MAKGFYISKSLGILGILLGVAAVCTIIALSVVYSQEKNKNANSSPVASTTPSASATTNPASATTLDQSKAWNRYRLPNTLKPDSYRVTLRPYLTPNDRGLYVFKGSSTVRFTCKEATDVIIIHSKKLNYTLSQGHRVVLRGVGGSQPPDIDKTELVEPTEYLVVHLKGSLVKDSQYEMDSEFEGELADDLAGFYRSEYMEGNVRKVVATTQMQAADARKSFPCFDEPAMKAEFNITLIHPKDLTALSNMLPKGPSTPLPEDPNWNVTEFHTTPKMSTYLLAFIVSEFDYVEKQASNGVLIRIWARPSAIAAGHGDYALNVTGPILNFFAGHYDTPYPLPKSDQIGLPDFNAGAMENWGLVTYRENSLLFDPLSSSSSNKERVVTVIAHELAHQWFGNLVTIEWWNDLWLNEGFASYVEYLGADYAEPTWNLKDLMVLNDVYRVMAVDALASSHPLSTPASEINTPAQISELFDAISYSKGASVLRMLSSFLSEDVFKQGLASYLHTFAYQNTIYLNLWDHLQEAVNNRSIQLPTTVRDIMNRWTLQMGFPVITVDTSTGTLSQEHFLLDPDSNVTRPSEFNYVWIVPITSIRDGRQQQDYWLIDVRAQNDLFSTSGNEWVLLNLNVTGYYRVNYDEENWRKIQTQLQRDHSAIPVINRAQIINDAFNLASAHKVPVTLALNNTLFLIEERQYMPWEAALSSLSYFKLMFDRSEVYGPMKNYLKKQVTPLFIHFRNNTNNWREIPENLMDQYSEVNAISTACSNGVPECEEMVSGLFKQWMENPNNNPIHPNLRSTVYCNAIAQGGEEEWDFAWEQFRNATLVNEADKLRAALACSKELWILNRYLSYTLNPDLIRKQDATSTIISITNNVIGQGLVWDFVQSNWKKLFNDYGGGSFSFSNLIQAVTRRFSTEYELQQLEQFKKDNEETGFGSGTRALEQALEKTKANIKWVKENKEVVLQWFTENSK

SMILES	IC50 [1]	Specificity [2]	half-life [8]	Specificity [9]	other results
O=C(C1CCCN1)N1CCCC1P(=O)(OCC(Cl)(Cl)Cl)OCC(Cl)(Cl)Cl (stereo not given)	1800 µM				
Cl.O=C([C@H]1CCCN1)N1CCCC1P(=O)(Oc1ccccc1)Oc1ccccc1 (stereo not given in full)		107	300 min	71	Specificity [3]: 73; Specificity [4]: 82; Specificity [5]: 100; IC50 [6]: 100 µM; Specificity [7]: 102
COc1ccc(OP(=O)(Oc2ccc(OC)cc2)C2CCCN2C(=O)C2CCCN2)cc1.Cl (stereo not given)	22 µM		470 min		
Cl.O=C(C1CCCN1)N1CCCC1P(=O)(Oc1ccc(NN2CCCC2)cc1)Oc1ccc(NN2CCCC2)cc1 (stereo not given)	5 µM				
Cl.O=C(C1CCCN1)N1CCCC1P(=O)(Oc1ccc(O)cc1)Oc1ccc(O)cc1 (stereo not given)	190 µM		> 200 min		
Cl.NC(=O)Nc1cccc(OP(=O)(OC2=CC=CC(NC(N)=O)C2)C2CCCN2C(=O)C2CCCN2)c1 (stereo not given)	2.3 µM				
COC(=O)CCNC(=O)c1ccc(OP(=O)(Oc2ccc(C(=O)NCCC(=O)OC)cc2)C2CCCN2C(=O)C2CCCN2)cc1.Cl (stereo not given)		83	26 min	0	
CS(=O)(=O)Nc1ccc(OP(=O)(Oc2ccc(NS(C)(=O)=O)cc2)C2CCCN2C(=O)C2CCCN2)cc1.Cl (stereo not given)		73	150 min	4	
CCCNC(=O)c1ccc(OP(=O)(Oc2ccc(C(=O)NCCC)cc2)C2CCCN2C(=O)C2CCCN2)cc1.Cl (stereo not given)		97	12 min	5	
COC(=O)C(Cc1ccc(OP(=O)(Oc2ccc(CC(NC(C)=O)C(=O)OC)cc2)C2CCCN2C(=O)C2CCCN2)cc1)NC(C)=O (stereo not given)		102		35	
CCOC(=O)CNC(=O)c1ccc(OP(=O)(Oc2ccc(C(=O)NCC(=O)OCC)cc2)C2CCCN2C(=O)C2CCCN2)cc1.Cl (stereo not given)		85	35 min	1	Specificity [3]: 66; Specificity [4]: 6; Specificity [10]: 94; Specificity [7]: 78; IC50 [11]: 102 µM
CC(=O)Nc1ccc(OP(=O)(Oc2ccc(NC(C)=O)cc2)C2CCCN2C(=O)C2CCCN2)cc1.Cl (stereo not given)		96		60	Specificity [3]: 83; Specificity [4]: 105; Specificity [5]: 99; Specificity [10]: 96; Specificity [7]: 100
CC(=O)Nc1cccc(OP(=O)(Oc2cccc(NC(C)=O)c2)C2CCCN2C(=O)C2CCCN2)c1.Cl (stereo not given)			220 min		
COC(=O)c1ccc(OP(=O)(Oc2ccc(C(=O)OC)cc2)C2CCCN2C(=O)C2CCCN2)cc1 (stereo not given)		73		4	
Cl.O=C([C@@H]1CCCN1)N1CCCC1P1(=O)Oc2ccccc2-c2ccccc2O1 (stereo not given in full)	31 µM		6 min		
O=C(C1CCCN1)N1CCCC1P(=O)(OCC(F)(F)F)OCC(F)(F)F (stereo not given)	9100 µM				
C[C@H](N)C(=O)Nc1ccc(OP(=O)(Oc2ccc(NC(=O)[C@@H](C)N)cc2)C2CCCN2C(=O)C2CCCN2)cc1.Cl (stereo not given in full)	0.6 µM	88	8 min	47	
Cl.NCC(=O)Nc1ccc(OP(=O)(Oc2ccc(NC(=O)CN)cc2)C2CCCN2C(=O)C2CCCN2)cc1 (stereo not given)			28 min		
Cl.O=C(CNC(=O)c1ccccc1)Nc1ccc(OP(=O)(Oc2ccc(NC(=O)CNC(=O)c3ccccc3)cc2)C2CCCN2C(=O)C2CCCN2)cc1 (stereo not given)		92	93 min	32	
